MIC data for 3 compounds are collected here from patent US4443436A, “C-20-Modified macrolide derivatives of the macrolide antibiotics tylosin, desmycosin, macrocin, and lactenocin” (Eli Lilly and Company, priority 1982, dated 1984).

Structures are written as SMILES. In brackets after ≈: the same amount, converted by molar mass. Like-named read-outs stand apart in the source and are kept apart here.

Holding throughout (type): cell-based
For one test, the system named is Streptococcus Group 9960. Kind of test: MIC, standard agar-dilution assay, Streptococcus Group 9960. The following applies: GROUP9960.
Test [1] concerns Streptococcus Group D X66. Kind of test: MIC, standard agar-dilution assay, Streptococcus Group D X66.
The test system of test [2] is Staphylococcus aureus S13E. The experiment in a line: MIC, standard agar-dilution assay, Staphylococcus aureus S13E. The conditions noted are these: Staphylococcus aureus, S13E.
A further test has as its system Staphylococcus aureus. Kind of test: MIC, broth-dilution microtiter test, Staphylococcus aureus. The source says: (§1) The MIC's in Table X were obtained using conventional broth-dilution microtiter tests.
For test [3], the system named is Streptococcus pneumoniae Park I. The experiment in a line: microbe, parasite or virus in culture.
The next test relates to Mycoplasma synoviae. Kind of test: MIC, broth-dilution microtiter test, Mycoplasma synoviae. The following applies: Mycoplasmopsis synoviae.
Description: as §1

Test [4] deals with Pasteurella multocida 17E. Kind of test: MIC, broth-dilution microtiter test, Pasteurella multocida 17E. The conditions noted are these: Pasteurella multocida 17E; bovine isolate; broth-dilution microtiter; read-out: MIC.
Description: as §1

In test [5] the test system is Pasteurella multocida 60A. The experiment in a line: MIC, broth-dilution microtiter test, Pasteurella multocida 60A. The following applies: Pasteurella multocida 60A; avian isolate; broth-dilution microtiter; read-out: MIC.
Description: as §1

Test [6] concerns Staphylococcus epidermidis EPI2. Kind of test: MIC, standard agar-dilution assay, Staphylococcus epidermidis EPI2.
The test system of test [7] is Haemophilus influenzae R252. The experiment in a line: MIC, standard agar-dilution assay, Haemophilus influenzae R252. The conditions noted are these: Haemophilus influenzae R252; ampicillin-resistant strain; read-out: MIC.
The test system of test [8] is Staphylococcus epidermidis EPI1. Kind of test: MIC, standard agar-dilution assay, Staphylococcus epidermidis EPI1.
Test [9] deals with Staphylococcus aureus X1.1. Kind of test: MIC, standard agar-dilution assay, Staphylococcus aureus X1.1. The conditions noted are these: Staphylococcus aureus, X1.1.
Test [10] has as its system Staphylococcus aureus X400. Kind of test: MIC, standard agar-dilution assay, Staphylococcus aureus X400.
For a further test, the system named is Streptococcus bovis 80. The experiment in a line: MIC, broth-dilution microtiter test, Streptococcus bovis 80. The following applies: Streptococcus equinus; Streptococcus bovis 80; broth-dilution microtiter; read-out: MIC.
Description: as §1

The subject of test [11] is Haemophilus influenzae Holt. The experiment in a line: MIC, standard agar-dilution assay, Haemophilus influenzae Holt.
In the next test the test system is Mycoplasma gallisepticum. The experiment in a line: MIC, broth-dilution microtiter test, Mycoplasma gallisepticum. The following applies: Mycoplasmoides gallisepticum.
Description: as §1

The test system of a further test is Mycoplasma hyopneumoniae. Kind of test: MIC, broth-dilution microtiter test, Mycoplasma hyopneumoniae. The conditions noted are these: Mesomycoplasma hyopneumoniae; Mycoplasma hyopneumoniae; broth-dilution microtiter; read-out: MIC.
Description: as §1

Test [12] deals with Pasteurella hemolytica 22C. Kind of test: MIC, broth-dilution microtiter test, Pasteurella hemolytica 22C. The conditions noted are these: Pasteurella hemolytica 22C; broth-dilution microtiter; read-out: MIC.
Description: as §1

Another test has as its system Mycoplasma hyorhinis. Kind of test: MIC, broth-dilution microtiter test, Mycoplasma hyorhinis.
Description: as §1

In test [13] the test system is Streptococcus pyogenes C203. The experiment in a line: MIC, standard agar-dilution assay, Streptococcus pyogenes C203. The following applies: Streptococcus pyogenes C203; agar dilution; read-out: MIC.
Test [14] concerns Staphylococcus aureus V41. Kind of test: MIC, standard agar-dilution assay, Staphylococcus aureus V41. The conditions noted are these: Staphylococcus aureus, V41.
Where [15] appears, read: Streptococcus Group 9960, agar dilution, read-out: MIC.
The mark [16] stands for this setting: Streptococcus Group D X66, agar dilution, read-out: MIC.
[17] abbreviates: broth-dilution microtiter, read-out: MIC.
Where [18] appears, read: Streptococcus pneumoniae Park I, agar dilution, read-out: MIC.
Setting [19] is: Staphylococcus epidermidis, EPI2.
The mark [20] stands for this setting: Staphylococcus epidermidis, EPI1.
Setting [21] is: Mycoplasma gallisepticum, broth-dilution microtiter, read-out: MIC.

`CCC1OC(=O)CC(O)C(C)C(OC2OC(C)C(OC3CC(C)(O)C(O)C(C)O3)C(N(C)C)C2O)C(CCOc2cccc(N(C)C)c2)CC(C)C(=O)C=CC(C)=CC1COC1OC(C)C(O)C(OC)C1OC` (stereo not drawn) [Compound 16, 20-DH-20-O-[m-(N,N-Dimethylamino)phenyl]tylosin]: the MIC is above 128 µg/mL with Streptococcus Group 9960 (setting [15]); 64 µg/mL (≈ 61.7 µM) in test [1] (setting [16]); 1 µg/mL (≈ 0.964 µM) in test [2]; 1.56 µg/mL (≈ 1.5 µM) in the test with Staphylococcus aureus (setting [17]); 8 µg/mL (≈ 7.71 µM) in [3] (setting [18]); 6.25 µg/mL (≈ 6.03 µM) in the test on Mycoplasma synoviae (Mycoplasma synoviae, broth-dilution microtiter, read-out: MIC). Besides, the MIC was above 50 µg/mL in test [4]; above 50 µg/mL in [5]; 1 µg/mL (≈ 0.964 µM) in test [6] (setting [19]); above 128 µg/mL in test [7]; 1 µg/mL (≈ 0.964 µM) in test [8] (setting [20]); 1 µg/mL (≈ 0.964 µM) in test [9]. The MIC is 2 µg/mL (≈ 1.93 µM) in test [10] (Staphylococcus aureus X400, methicillin-resistant strain, agar dilution, read-out: MIC); 50 µg/mL (≈ 48.2 µM) with Streptococcus bovis 80; 128 µg/mL (≈ 123 µM) in test [11] (Haemophilus influenzae); 1.56 µg/mL (≈ 1.5 µM) in the test on Mycoplasma gallisepticum (setting [21]); above 25 µg/mL in the test on Mycoplasma hyopneumoniae; above 50 µg/mL in test [12]. Besides, the MIC with Mycoplasma hyorhinis (Mycoplasma) is 50 µg/mL (≈ 48.2 µM); in [13], 1 µg/mL (≈ 0.964 µM); in test [14], 1 µg/mL (≈ 0.964 µM).
As to `CCC1OC(=O)CC(O)C(C)C(OC2OC(C)C(OC3CC(C)(O)C(O)C(C)O3)C(N(C)C)C2O)C(CCOc2ccc(C(=O)c3ccccc3)cc2)CC(C)C(=O)C=CC(C)=CC1COC1OC(C)C(O)C(OC)C1OC` (stereo not drawn) [Compound 13, 20-DH-20-O-(p-Benzoylphenyl)tylosin], the MIC was found to be 4 µg/mL (≈ 3.64 µM) in the test with Streptococcus Group 9960; 4 µg/mL (≈ 3.64 µM) in [1]; 1 µg/mL (≈ 0.91 µM) in test [2]; 1.56 µg/mL (≈ 1.42 µM) in the test with Staphylococcus aureus (setting [17]); 1 µg/mL (≈ 0.91 µM) in test [3] (Streptococcus pneumoniae); 6.25 µg/mL (≈ 5.69 µM) against Mycoplasma synoviae. The MIC is above 50 µg/mL in test [4]; above 50 µg/mL in test [5]; 1 µg/mL (≈ 0.91 µM) in test [6] (setting [19]); above 128 µg/mL in [7]; 2 µg/mL (≈ 1.82 µM) in test [8] (Staphylococcus epidermidis EPI1, agar dilution, read-out: MIC); 1 µg/mL (≈ 0.91 µM) in [9]. Further, the MIC in test [10] (Staphylococcus aureus, X400) is 4 µg/mL (≈ 3.64 µM); in the test with Streptococcus bovis 80, 1.56 µg/mL (≈ 1.42 µM); in test [11] (Haemophilus influenzae) it was above 128 µg/mL; in the test with Mycoplasma gallisepticum (setting [21]), 0.78 µg/mL (≈ 0.71 µM); with Mycoplasma hyopneumoniae, 3.12 µg/mL (≈ 2.84 µM); in test [12], above 50 µg/mL. The figures for the MIC (in the test with Mycoplasma hyorhinis (Mycoplasma); in test [13]; in test [14]) were 6.25 µg/mL (≈ 5.69 µM), 2 µg/mL (≈ 1.82 µM) and 1 µg/mL (≈ 0.91 µM), respectively.
Consider `CCC1OC(=O)CC(O)C(C)C(OC2OC(C)C(OC3CC(C)(O)C(O)C(C)O3)C(N(C)C)C2O)C(CCOC(C(F)(F)F)C(F)(F)F)CC(C)C(=O)C=CC(C)=CC1COC1OC(C)C(O)C(OC)C1OC` (stereo not drawn) [Compound 19, 20-DH-20-O-[2,2,2-Trifluoro-1-(trifluormethyl)ethyl]tylosin], for which the MIC in the test on Streptococcus Group 9960 (setting [15]) is above 128 µg/mL; in test [1] (setting [16]) it was above 128 µg/mL; in test [2], 4 µg/mL (≈ 3.74 µM); in the test with Staphylococcus aureus it was 12.5 µg/mL (≈ 11.7 µM); in [3] (setting [18]), 32 µg/mL (≈ 30 µM); in the test with Mycoplasma synoviae, 12.5 µg/mL (≈ 11.7 µM). Further, the MIC in test [4] is above 50 µg/mL; in test [5] it was above 50 µg/mL; in [6] (Staphylococcus epidermidis EPI2, agar dilution, read-out: MIC), 2 µg/mL (≈ 1.87 µM); in test [7], above 128 µg/mL; in [8] (setting [20]) it was 4 µg/mL (≈ 3.74 µM); in test [9], 4 µg/mL (≈ 3.74 µM). Moreover, the MIC in test [10] (Staphylococcus aureus, X400) is 4 µg/mL (≈ 3.74 µM); in the test on Streptococcus bovis 80, above 50 µg/mL; in test [11] (Haemophilus influenzae Holt, ampicillin-sensitive strain, read-out: MIC) it was above 128 µg/mL; in the test with Mycoplasma gallisepticum, 3.12 µg/mL (≈ 2.92 µM); in the test with Mycoplasma hyopneumoniae it was above 25 µg/mL; in test [12], above 50 µg/mL. Further, the MIC in the test on Mycoplasma hyorhinis (Mycoplasma hyorhinis, broth-dilution microtiter, read-out: MIC) is above 50 µg/mL; in test [13], 8 µg/mL (≈ 7.49 µM); in test [14], 4 µg/mL (≈ 3.74 µM).
